Measurements from patent US20210299176A1, “COMPOSITIONS AND METHODS FOR TREATING CANCER AND AUTOIMMUNE DISEASES” (CEDARS-SINAI MEDICAL CENTER, priority 2018, published 2021).

Assays:
B16 melanoma = B16 melanoma implantation in C57 BL mice, treatment with GITR agonist; assay type: in vivo; conditions: intraperitoneal 30 mg/kg twice per week vs DMSO control; p=0.0333, log rank
Description: After implantation of B16 melanoma, C57 BL mice underwent treatment with 11702 GITR agonist or DMSO control. (A) Animals lived longer after GITR agonist intraperitoneal 30 mg/kg treatment twice per week (p=0.0333, log rank). (B) Tumor volume was inhibited in 11702 treated animals (p<0.05, Anova).
After implantation of B16 melanoma, C57 BL mice underwent treatment with 11702 GITR agonist or DMSO control. […] (B) Tumor volume was inhibited in 11702 treated animals (p<0.05, Anova).

[1] = test system: CD4+CD25- cells (T effector cells); assay: T cell suppression assay (CFSE proliferation of T effector cells, FACS); assay type: cell-based, human; conditions: for inhibition (decrease) of T cell proliferation: T effector without T-reg
Description: FIGS. 1A-1B show the results of where PBMC was isolated (Ficoll, GE Healthcare) from the WBC cone collected from healthy platelet donor. Cells were washed and passed through 40 um cell strainer before being stained with T cell surface antibodies. Then cells were put on cell sorter (BD FACSARIA III). Specific cell populations were collected as follows: CD4^+CD25^− cells (T effector cells), CD4^+CD25^+CD45RA^+CD127^− cells (T regulatory cells) and CD3^− cells (serve as Antigen Presenting Cells, APC). T effector cells were labeled with CellTrace CFSE (Invitrogen), heavily washed before cell number counting. Effector cells and T-regs were then mixed together at 1:1 ratio in culture media (RPMI 1640, 10% FBS, Pen-Strep and 1% NEAA) which enhanced with anti-CD3 (3 ug/ml) anti-CD28 (2 ug/ml) antibodies. APCs were treated with Mitomycin (50 ug/ml) for 30 minutes at 37° C., 5% CO2 incubator, then added to culture mix (APC:T-eff 2:1) as a proliferation co-stimulator. Cell mixture was incubated at 37° C., 5% CO2 for 6 days before being re-stained with T cell surface markers (CD4, CD25) and sent for FACS analysis. (A) T-eff fully stimulated; (B) T-eff fully stimulated+T-reg (1:1).
PBMC was isolated and specific human T cell populations were collected as follows: CD4^+CD25^− cells (T effector cells), CD4^+CD25^+CD45RA^+CD127^− cells (T regulatory cells) and CD3^− cells (serve as Antigen Presenting Cells, APC). T effector cells were labeled with CellTrace CFSE and effector cells and T-regs were then mixed together at 1:1 ratio in culture media (RPMI 1640, 10% FBS, Pen-Strep and 1% NEAA) which enhanced with anti-CD3 (3 ug/ml) anti-CD28 (2 ug/ml) antibodies. APCs were treated with Mitomycin (50 ug/ml) for 30 minutes at 37° C., 5% CO2 incubator, then added to culture mix (APC:T-eff 2:1) as a proliferation co-stimulator, incubated, and sent for FACS analysis. Molecule 11702 agonist and 11704 antagonist were added to treat groups respectively at a concentration gradient of 5 uM, 25 uM and 50 uM.
PBMC was isolated (Ficoll, GE Healthcare) from the WBC cone collected from healthy platelet donor. Cells were washed and passed through 40 um cell strainer before being stained with T cell surface antibodies. Then cells were put on cell sorter (BD FACSARIA III). Specific cell populations were collected as follows: CD4^+CD25^− cells (T effector cells), CD4^+CD25^+CD45RA^+CD127^− cells (T regulatory cells) and CD3^− cells (serve as Antigen Presenting Cells, APC). T effector cells were labeled with CellTrace CFSE (Invitrogen), heavily washed before cell number counting. Effector cells and T-regs were then mixed together at 1:1 ratio in culture media (RPMI 1640, 10% FBS, Pen-Strep and 1% NEAA) which enhanced with anti-CD3 (3 ug/ml) anti-CD28 (2 ug/ml) antibodies. […]

Row | Structure (SMILES) | survival of animals (B16 melanoma) | inhibition at 50 µM ([1]; Homo sapiens, T-cell, T effector + T-reg (1:1), 50 uM, read-out: inhibition (decrease) of proliferation compared to base line) [%] | effect on T effector cell population ([1]; T cell suppression assay, with and without Tregs, more effective in the presence of Tregs) | inhibition (decrease) of T cell proliferation ([1]; 5 uM) | inhibition (decrease) of T cell proliferation ([1]; 25 um)
1 | OCC1OC(Nc2ccc(-c3ccc(NC4CC(O)C(CO)O4)cc3)cc2)CC1O (centres unmarked) [RMGL171102] | lived longer |  |  |  | 
2 | O=C(CCCCC(=O)NN=Cc1cccc(O)c1)NN=Cc1cccc(O)c1 [RMGL171104] |  | 55.9 | dose dependent retraction of T effector cells | no significant effect | no significant effect
